The record followed here is publication PMC11597774, “Investigation of Antimicrobial and Anti-Inflammatory Efficacy of Newly Synthesized Pyrogallol-Coumarin Hybrids: In Vitro and In Silico Studies” (Pharmaceutics, 2024).

As a reminder, the IC50 is the concentration that gives 50% inhibition. What is called MIC is the smallest concentration in the dilution series that meets the test's criterion for growth inhibition. Read a low MIC as greater potency.

The target of experiment [1] is T1, Soybean lipoxygenase (Type I-B) (Glycine max, UniProt P08170).
T1 construct: purchased Merck (KGaA, Darmstadt, Germany)
T1 sequence (P08170 1-839): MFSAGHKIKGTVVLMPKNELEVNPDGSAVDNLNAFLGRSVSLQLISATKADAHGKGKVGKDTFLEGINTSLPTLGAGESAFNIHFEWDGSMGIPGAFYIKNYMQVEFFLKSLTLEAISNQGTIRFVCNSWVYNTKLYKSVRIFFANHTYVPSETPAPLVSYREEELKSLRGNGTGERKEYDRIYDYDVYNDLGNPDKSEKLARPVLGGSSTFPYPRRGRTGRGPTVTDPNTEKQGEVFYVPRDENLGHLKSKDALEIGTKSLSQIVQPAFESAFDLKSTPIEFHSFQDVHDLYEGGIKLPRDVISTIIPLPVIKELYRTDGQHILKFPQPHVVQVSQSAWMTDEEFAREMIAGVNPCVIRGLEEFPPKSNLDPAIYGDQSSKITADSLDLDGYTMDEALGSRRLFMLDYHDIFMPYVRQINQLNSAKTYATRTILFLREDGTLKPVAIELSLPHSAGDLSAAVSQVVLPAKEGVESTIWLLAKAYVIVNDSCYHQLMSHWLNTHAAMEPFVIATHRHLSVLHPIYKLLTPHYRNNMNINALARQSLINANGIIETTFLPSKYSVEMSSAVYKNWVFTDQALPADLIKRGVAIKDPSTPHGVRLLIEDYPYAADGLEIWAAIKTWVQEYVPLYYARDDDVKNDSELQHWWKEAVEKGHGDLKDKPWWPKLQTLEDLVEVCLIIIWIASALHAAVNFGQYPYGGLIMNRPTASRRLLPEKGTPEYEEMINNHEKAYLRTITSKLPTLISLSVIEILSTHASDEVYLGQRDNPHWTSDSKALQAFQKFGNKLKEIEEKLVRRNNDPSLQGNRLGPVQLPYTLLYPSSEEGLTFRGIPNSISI
Kind of experiment: In vitro LOX inhibition assay. In kind it is biochemical. As to conditions: for inhibition at 25 µM / inhibition at 50 µM / inhibition at 100 µM: read-out: Anti-LOX Activity (%); for IC50: sodium linoleate substrate, tris buffer pH 9, read-out: IC50 (µM), in vitro lipoxygenase inhibitory activity. The source says:
Soybean lipoxygenase (Type I-B) is a very often used enzyme for the investigation of anti-inflammatory properties of compounds [38]. The LOX inhibition assay measures the rate of oxidation of linoleic acid by lipoxygenase, which results in the formation of a colorless product that can be detected spectrophotometrically. This enzyme catalyzes the conversion of linoleic acid into hydroperoxy fatty acids and results in increased absorbance at 234 nm. The tested compounds dissolved in DMSO were incubated at room temperature with sodium linoleate (3 mM in tris buffer pH = 9) and enzyme solution (5 × 10^3 units/mL in saline). The activity for each tested compound was presented as IC50 value ± standard deviation (SD) of three independent measurements.

A further experiment has as its system C. albicans ATCC 10231. Nature of the experiment: Microdilution MIC/MMC with resazurin. In kind it is cell-based, Candida albicans. The conditions noted are these: for MIC: Candida albicans, ATCC10231. The protocol: (§1) The antimicrobial activity of PCH-1 and PCH-2 was tested against 13 microorganisms. The experiment included four standard strains, Staphylococcus aureus ATCC 6538, Bacillus subtilis ATCC 6633, Proteus mirabilis ATCC 12453, and Pseudomonas aeruginosa ATCC 27853; five isolates, Staphylococcus aureus, Escherichia coli, Salmonella enterica, Klebsiella pneumoniae, and Bacillus subtilis; and one probiotic strain Lactobacillus plantarum 299V. Additionally, three fungal strains were tested, including one standard strain, Candida albicans ATCC 10231, and two isolates, Saccharomyces cerevisiae and probiotic strain Saccharomyces boulardii.
(§2) The bacterial suspensions were prepared using the direct colony method. The turbidity of the initial suspension was adjusted using a densitometer (DEN-1, BioSan, Latvia). When adjusted to the turbidity of the 0.5 McFarland standard, the bacterial suspension contains approximately 10^8 colony-forming units (CFU)/mL, and the yeast suspension contains approximately 10^6 CFU/mL. For the experiment, the initial suspension was further diluted at a 1:100 ratio in a sterile 0.85% saline solution.
(§3) The antimicrobial activity was assessed by determining the minimum inhibitory concentrations (MICs) and minimum microbicidal concentrations (MMCs) using the microdilution plate method with resazurin (Alfa Aesar GmbH & Co. (KG, Karlsruhe, Germany)). For this, 96-well plates were prepared by adding 100 μL of Mueller Hinton broth (Torlak, Belgrade, Serbia) for bacterial tests and Sabouraud broth (Torlak, Belgrade, Serbia) for yeast into each well. The tested PCH-1 and PCH-2 were dissolved in 10% dimethyl sulfoxide (DMSO) and then diluted into sterile distilled water. A 100 μL sample from the stock solution of the tested compound was then added to the first row of the plate, followed by twofold serial dilutions using a multichannel pipette. This produced a concentration range from 2.69 to 0.0025 µmol/L. The method is described in detail in the reported paper.
(§4) Each test setup included growth control and sterility control. […] Minimum microbicidal concentrations (MMCs) were determined as described in detail in the reported paper.
Background: Broth dilution looks for growth in wells or tubes with falling amounts of substance.

In another experiment the test system is S. boulardii. Kind of experiment: Microdilution MIC/MMC with resazurin. In kind it is cell-based, Saccharomyces boulardii. As to conditions: for MIC: Saccharomyces cerevisiae. The method, then:
as §1, §2, §3, §4

For the next experiment, the system named is K. pneumoniae. Kind of experiment: Microdilution MIC/MMC with resazurin. It counts as cell-based, Klebsiella pneumoniae. As to conditions: for MIC: Klebsiella pneumoniae. The protocol:
as §1, §2, §3, §4

A further experiment concerns P. aeruginosa ATCC 27853. Kind of experiment: Microdilution MIC/MMC with resazurin. In kind it is cell-based, Pseudomonas aeruginosa. The conditions noted are these: for MIC: Pseudomonas aeruginosa, ATCC27853. The protocol:
as §1, §2, §3, §4

Converted amounts (≈) assume the structure as drawn.

As to `C/C(NNC(=O)c1cc(O)c(O)c(O)c1)=C1\C(=O)Oc2ccccc2C1=O` [PCH-2, (E)-N′-(1-(2,4-dioxochroman-3-ylidene)ethyl)-3,4,5-trihydroxybenzohydrazide], the inhibition at 20 µM in experiment [1] (20 µM) is 20.7 ± 2.7%. In experiment [1], the inhibition at 25 µM was 38.9 ± 3.1%, the inhibition at 30 µM was found to be 41.9 ± 1.4%, the inhibition at 40 µM stood at 67 ± 0.9% and the inhibition at 50 µM amounted to 71.7 ± 2.2%. In addition, in experiment [1], the inhibition at 100 µM came to 95.2 ± 1% and the IC50 amounted to 34.1 µM. In the experiment on C. albicans ATCC 10231, this molecule displayed an MMC of 1.35 mM and an MIC of 170 µM (≈ 63 µg/mL). In the experiment on S. boulardii, this molecule displayed an MMC of 2.70 mM and an MIC of 2700 µM (≈ 1000 µg/mL). In the experiment with K. pneumoniae, this molecule had an MMC of 0.34 mM and an MIC of 170 µM (≈ 63 µg/mL). In the experiment with P. aeruginosa ATCC 27853, this molecule yielded an MMC of 0.67 mM and an MIC of 340 µM (≈ 126 µg/mL).
Take `C/C(NNC(=O)c1ccc(O)c(O)c1O)=C1\C(=O)Oc2ccccc2C1=O` [PCH-1, (E)-N′-(1-(2,4-dioxochroman-3-ylidene)ethyl)-2,3,4-trihydroxybenzohydrazide]: in experiment [1], the inhibition at 25 µM came to 32.8 ± 2.4%, the inhibition at 30 µM was determined as 36.8 ± 2.4%, the inhibition at 40 µM is 51.4 ± 1.8% and the inhibition at 50 µM came to 65.1 ± 2%. Besides, in experiment [1], the inhibition at 100 µM came out at 96.1 ± 0.7% and the IC50 was 38.1 µM. The molecule also yielded an inhibition at 60 µM in experiment [1] (60 µM) of 84.9 ± 0.1%. In the experiment with C. albicans ATCC 10231, this molecule returned an MMC of 0.34 mM and an MIC of 170 µM (≈ 63 µg/mL). Further, in the experiment with S. boulardii, the MMC was determined as 2.70 mM and the MIC is 1350 µM (≈ 500 µg/mL). For the same molecule, in the experiment with K. pneumoniae, the MMC worked out at 0.34 mM and the MIC was 170 µM (≈ 63 µg/mL). Further, in the experiment on P. aeruginosa ATCC 27853, the MMC was determined as 0.34 mM and the lowest concentration to inhibit growth (MIC) was 340 µM (≈ 126 µg/mL).
